Measured values taken from PubChem BioAssay (NCI).
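Compound exposure: 48 hours, 5 concentrations, 96-well plates. TGI: total growth inhibition.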

Experiments:
Test in all cases: NCI tumour cell line growth inhibition, 48 h
[1] = test system: 786-0 renal
[2] = test system: A498 renal
[3] = test system: A549 NSCLC
[4] = test system: ACHN renal
[5] = test system: CCRF-CEM leukemia
[6] = test system: COLO 205 colon
[7] = test system: DLD-1 colon
[8] = test system: DMS 114 small cell lung
[9] = test system: DMS 273 small cell lung
[10] = test system: EKVX NSCLC
[11] = test system: HCC-2998 colon
[12] = test system: HCT-116 colon
[13] = test system: HCT-15 colon
[14] = test system: HL-60(TB) leukemia
[15] = test system: HOP-18 NSCLC
[16] = test system: HOP-62 NSCLC
[17] = test system: HT29 colon
[18] = test system: IGROV1 ovarian
[19] = test system: K-562 leukemia
[20] = test system: KM12 colon
[21] = test system: LOX IMVI melanoma
[22] = test system: LXFL 529 NSCLC
[23] = test system: M14 melanoma
[24] = test system: M19-MEL melanoma
[25] = test system: MALME-3M melanoma
[26] = test system: MOLT-4 leukemia
[27] = test system: NCI-H226 lung
[28] = test system: NCI-H23 lung
[29] = test system: NCI-H460 lung
[30] = test system: NCI-H522 lung
[31] = test system: OVCAR-3 ovarian
[32] = test system: OVCAR-4 ovarian
[33] = test system: OVCAR-5 ovarian
[34] = test system: OVCAR-8 ovarian
[35] = test system: RPMI-8226 leukemia
[36] = test system: SF-268 CNS
[37] = test system: SF-295 CNS
[38] = test system: SF-539 CNS
[39] = test system: SK-MEL-2 melanoma
[40] = test system: SK-MEL-28 melanoma
[41] = test system: SK-MEL-5 melanoma
[42] = test system: SK-OV-3 ovarian
[43] = test system: SN12C renal
[44] = test system: SNB-19 CNS
[45] = test system: SNB-75 CNS
[46] = test system: SNB-78 CNS
[47] = test system: SR leukemia
[48] = test system: SW-620 colon
[49] = test system: TK-10 renal
[50] = test system: UACC-257 melanoma
[51] = test system: UACC-62 melanoma
[52] = test system: UO-31 renal
[53] = test system: XF 498 CNS
[54] = test system: BT-549 breast
[55] = test system: CAKI-1 renal
[56] = test system: DU-145 prostate
[57] = test system: HOP-92 NSCLC
[58] = test system: HS 578T breast
[59] = test system: KM20L2 colon
[60] = test system: MCF7 breast
[61] = test system: MDA-MB-231 breast
[62] = test system: MDA-MB-435
[63] = test system: MDA-N
[64] = test system: NCI/ADR-RES ovarian
[65] = test system: PC-3 prostate
[66] = test system: RXF 393 renal
[67] = test system: RXF-631 renal
[68] = test system: T-47D breast
[69] = test system: U251 CNS

Question: What does the source list for `CCCCC(N)CSSCC(N)CCCC` (centres undefined)?
Answer: TGI [1]: 32.8 µM; TGI [2]: 57.4 µM; TGI [3]: > 100 µM; TGI [4]: > 100 µM; TGI [5]: 64.2 µM; TGI [6]: > 100 µM; TGI [7]: 60.3 µM; TGI [8]: 37.1 µM; TGI [9]: 45.6 µM; TGI [10]: 61.8 µM; TGI [11]: 35.4 µM; TGI [12]: 31.8 µM; TGI [13]: 63.2 µM; TGI [14]: 40.1 µM; TGI [15]: > 100 µM; TGI [16]: 95.4 µM; TGI [17]: 50.8 µM; TGI [18]: > 100 µM; TGI [19]: 57 µM; TGI [20]: > 100 µM; TGI [21]: 32.1 µM; TGI [22]: 31.2 µM; TGI [23]: 38.2 µM; TGI [24]: 56.9 µM; TGI [25]: 32.6 µM; TGI [26]: 47.9 µM; TGI [27]: 43.6 µM; TGI [28]: 55.4 µM; TGI [29]: > 100 µM; TGI [30]: 29.7 µM; TGI [31]: 47.2 µM; TGI [32]: 32.6 µM; TGI [33]: 38.1 µM; TGI [34]: > 100 µM; TGI [35]: 61.5 µM; TGI [36]: 61.5 µM; TGI [37]: > 100 µM; TGI [38]: 47.8 µM; TGI [39]: 36.7 µM; TGI [40]: 34.8 µM; TGI [41]: 55.7 µM; TGI [42]: > 100 µM; TGI [43]: 36.1 µM; TGI [44]: > 100 µM; TGI [45]: > 100 µM; TGI [46]: 98.5 µM; TGI [47]: 45.7 µM; TGI [48]: 58 µM; TGI [49]: > 100 µM; TGI [50]: 44.9 µM; TGI [51]: 41.1 µM; TGI [52]: 47.1 µM; TGI [53]: 34.9 µM

Question: How did the TGI [1] turn out when `CCCCCCC/C=C1\CCC(CN(C)C)C1=O` (centres undefined) was run?
Answer: Its TGI is 3.84 µM.

Question: And the TGI [2]?
Answer: Its TGI is 35.6 µM.

Question: What about the TGI [3] of the same compound?
Answer: The TGI was 50 µM.

Question: What about the TGI [4] of the same compound?
Answer: The TGI was 31.6 µM.

Question: And the TGI [54]?
Answer: The TGI was 28 µM.

Question: What about the TGI [55] of the same compound?
Answer: The TGI was 31.6 µM.

Question: And the TGI [5]?
Answer: The TGI was 13 µM.

Question: And the TGI [6]?
Answer: The TGI was 25.5 µM.

Question: And the TGI [7]?
Answer: Its TGI is 20.9 µM.

Question: And the TGI [56]?
Answer: The TGI was 27.8 µM.

Question: What about the TGI [10] of the same compound?
Answer: Its TGI is 22.8 µM.

Question: And the TGI [11]?
Answer: Its TGI is 32.1 µM.

Question: What about the TGI [12] of the same compound?
Answer: Its TGI is 22.3 µM.

Question: And the TGI [13]?
Answer: Its TGI is 21.7 µM.

Question: And the TGI [14]?
Answer: Its TGI is 9.09 µM.

Question: And the TGI [15]?
Answer: Its TGI is 31.4 µM.

Question: And the TGI [16]?
Answer: The TGI was 32.3 µM.

Question: And the TGI [57]?
Answer: Its TGI is 33.7 µM.

Question: And the TGI [58]?
Answer: The TGI was > 100 µM.

Question: What about the TGI [17] of the same compound?
Answer: The TGI was 29.9 µM.

Question: What about the TGI [18] of the same compound?
Answer: The TGI was 36.3 µM.

Question: What about the TGI [19] of the same compound?
Answer: Its TGI is 9.53 µM.

Question: What about the TGI [20] of the same compound?
Answer: Its TGI is 13.9 µM.

Question: What about the TGI [59] of the same compound?
Answer: The TGI was 34.6 µM.

Question: What about the TGI [21] of the same compound?
Answer: Its TGI is 15 µM.

Question: And the TGI [22]?
Answer: Its TGI is 20.8 µM.

Question: And the TGI [23]?
Answer: The TGI was 23.6 µM.

Question: What about the TGI [25] of the same compound?
Answer: The TGI was 25.3 µM.

Question: And the TGI [60]?
Answer: The TGI was 16.4 µM.

Question: What about the TGI [61] of the same compound?
Answer: The TGI was 8.72 µM.

Question: And the TGI [62]?
Answer: The TGI was 18.8 µM.

Question: What about the TGI [63] of the same compound?
Answer: Its TGI is 26.8 µM.

Question: What about the TGI [26] of the same compound?
Answer: Its TGI is 7 µM.

Question: What about the TGI [27] of the same compound?
Answer: Its TGI is 48.4 µM.

Question: And the TGI [28]?
Answer: The TGI was 32.7 µM.

Question: What about the TGI [29] of the same compound?
Answer: The TGI was 40.5 µM.

Question: And the TGI [30]?
Answer: Its TGI is 11.2 µM.

Question: What about the TGI [64] of the same compound?
Answer: Its TGI is 14.6 µM.

Question: And the TGI [31]?
Answer: Its TGI is 18 µM.

Question: What about the TGI [32] of the same compound?
Answer: Its TGI is 33.6 µM.

Question: And the TGI [33]?
Answer: Its TGI is 36.7 µM.

Question: And the TGI [34]?
Answer: Its TGI is 18 µM.

Question: And the TGI [65]?
Answer: Its TGI is 27.6 µM.

Question: And the TGI [35]?
Answer: Its TGI is 5.26 µM.

Question: And the TGI [66]?
Answer: Its TGI is 12.1 µM.

Question: And the TGI [67]?
Answer: Its TGI is > 71.4 µM.

Question: What about the TGI [36] of the same compound?
Answer: Its TGI is 35.8 µM.

Question: What about the TGI [37] of the same compound?
Answer: Its TGI is 30.1 µM.

Question: And the TGI [38]?
Answer: The TGI was 32.7 µM.

Question: And the TGI [39]?
Answer: The TGI was 29.8 µM.

Question: What about the TGI [40] of the same compound?
Answer: The TGI was 31 µM.

Question: What about the TGI [41] of the same compound?
Answer: The TGI was 34 µM.

Question: And the TGI [42]?
Answer: The TGI was 43 µM.

Question: What about the TGI [43] of the same compound?
Answer: Its TGI is 17.5 µM.

Question: And the TGI [44]?
Answer: Its TGI is 33.8 µM.

Question: What about the TGI [45] of the same compound?
Answer: The TGI was 33.1 µM.

Question: What about the TGI [46] of the same compound?
Answer: The TGI was 35.8 µM.

Question: What about the TGI [47] of the same compound?
Answer: Its TGI is 9.17 µM.

Question: What about the TGI [48] of the same compound?
Answer: Its TGI is 18 µM.

Question: What about the TGI [68] of the same compound?
Answer: The TGI was 26.7 µM.

Question: And the TGI [49]?
Answer: Its TGI is 16.5 µM.

Question: What about the TGI [69] of the same compound?
Answer: Its TGI is 32.1 µM.

Question: What about the TGI [50] of the same compound?
Answer: Its TGI is 29.4 µM.

Question: What about the TGI [51] of the same compound?
Answer: Its TGI is 28.7 µM.

Question: What about the TGI [52] of the same compound?
Answer: Its TGI is 29.1 µM.

Question: And the TGI [53]?
Answer: The TGI was 35.4 µM.
